Patent US8822699B2, “Heterocyclic compound and use thereof” (Takeda Pharmaceutical Company Limited, priority 2010, dated 2014)
pIC50: −log10 of the molar value. Where two headings read alike, the source gives them in different places.

Assays:
[1] = test system: Aβ42 production in primary nerve cells; assay: Measurement of amyloid β production inhibition rate using primary nerve cell (Aβ42 sandwich ELISA); type: cell-based; conditions: primary nerve cells from cerebral cortex of SD rat fetus, cultured 3 days with compound, culture supernatant, sandwich ELISA for Aβ42, read-out: Aβ42 production inhibitory activity IC50
Protocol: Measurement of Amyloid β Production Inhibition Rate Using Primary Nerve Cell
The primary nerve cells were collected from the cerebral cortex of rat fetus (CLEA Japan, Inc.: SD rat, fetal life 17 days of age), and suspended in a neurobasal medium containing B27 supplement, L-glutamine, penicillin-streptomycin (manufactured by Invitrogen) at 500,000 cells/mL. Then, the suspension was seeded in poly L-lysine-coated 96 well plate (manufactured by SUMITOMO BAKELITE) by 100 μL, and cultured at 37° C., 5% CO2 for 7 days. The medium was completely removed, and a new neurobasal medium was added at 75 μL/well. Thereto was added (75 μL/well) a neurobasal medium supplemented with a 2-fold measurement concentration of an evaluation target compound, and the mixture was cultured for 3 days. The culture supernatant was collected from each well, diluted as appropriate, applied to sandwich ELISA between BNT77 antibody-BA27 antibody (for Aβ40) and sandwich ELISA between BNT77 antibody-3005 antibody (for Aβ42), and the amounts of Aβ40 and Aβ42 were measured.
The amyloid β production inhibition rate (%) of the compound was calculated by the following formula. (1−(amyloid β production amount with addition of compound)/(amyloid β production amount without addition of compound))×100
The amyloid β production 50% inhibitory rate (IC50 value) was calculated using the statistical analysis software (SAS Preclinical Package) as the concentration of the compound showing 50% inhibition when the amyloid β production amount without addition of the compound is 100%. In addition, a new neurobasal medium was added (75 μL/well) to the cells after collection of the culture supernatant, and the cells were left standing for about 30 min to reach room temperature. Cell-Titer Glo Luminescent Cell Viability Assay (manufactured by Promega) was added at 75 μL/well, and the plate was shaken for 2 min and reacted for about 10 min.

[2] = test system: Aβ42 (soluble Aβ in hippocampi); assay: Aβ42 in hippocampi of mice after oral administration (Aβ ELISA); type: in vivo; conditions: C57BL/6J mice, 10 mg/kg orally, hippocampi isolated 3 hours after administration, soluble Aβ42 by two-site sandwich ELISA; for inhibition at 10 mg/kg: Mus musculus, po, 3 h, read-out: Aβ42 production inhibitory activity (% inhibition); for Aβ42 production inhibitory activity (% inhibition): 10 mg/kg
Protocol: C57BL/6J mice (7-10 weeks old) were purchased from CLEA Japan Inc. Mice were housed in groups and kept on a 12 h-light; 12 h-dark schedule. All mice were given ad libitum access to food and water.
Each test compound was reconstituted in solubilization buffer ([DMSO (Wako)]: [10% Cremophor (Nakarai)+30% polyethylene glycol 400 (Wako)+60% 2 mol/L Citrate buffer (Wako)]=1:9) and orally administrated at 10 mg/kg.
Hippocampi was isolated from animals, 3 hours after test compounds were orally administrated. Hippocampi were homogenized in ice-cold Tris-extraction buffer (50 mmol/L Tris-HCl, pH 7.2, 200 mmol/L sodium chloride, 2% protease-free bovine serum albumin, and 0.01% sodium merthiolate) containing protease inhibitor cocktails (Roche, Switzerland). After centrifugation at 15,000 rpm for 15 minutes, the supernatants were subjected to two-site sandwich ELISA to measure amount of soluble Aβ. Aβ42 was quantitated by two-site sandwich ELISA using BNT77, which recognizes Aβ11-28, as a capture antibody and BC05-HRP as a detector antibody, respectively.

COc1nc(-c2nnc3n2CCCC3(Oc2ccc(Cl)c(F)c2)C(C)(C)O)ccc1-n1cnc(C)c1 (stereo not drawn) [Example 1, 2-{8-(4-chloro-3-fluorophenoxy)-3-[6-methoxy-5-(4-methyl-1H-imidazol-1-yl)pyridin-2-yl]-5,6,7,8-tetrahydro[1,2,4]triazolo[4,3-a]pyridin-8-yl}propan-2-ol]
pIC50 ([1]; Rattus norvegicus, 72 h): 7.57
inhibition at 10 mg/kg [2]: 40%

COc1nc(-c2nnc3n2CCCC3(Oc2ccc(F)c(C(F)(F)F)c2)C(C)(C)O)ccc1-n1cnc(C)c1 (stereo not drawn) [Example 2, 2-{8-[4-fluoro-3-(trifluoromethyl)phenoxy]-3-[6-methoxy-5-(4-methyl-1H-imidazol-1-yl)pyridin-2-yl]-5,6,7,8-tetrahydro[1,2,4]triazolo[4,3-a]pyridin-8-yl}propan-2-ol]
pIC50 [1]: 7.72
Aβ42 production inhibitory activity (% inhibition) [2]: 48%

COc1cc(-c2nnc3n2CCCC3(CC2CC2)c2ccc(F)c(F)c2)ccc1-c1cnc(C)o1 (stereo not drawn) [Example 21, optically active 8-(cyclopropylmethyl)-8-(3,4-difluorophenyl)-3-[3-methoxy-4-(2-methyl-1,3-oxazol-5-yl)phenyl]-5,6,7,8-tetrahydro[1,2,4]triazolo[4,3-a]pyridine]
pIC50 [1]: 8.30
inhibition at 10 mg/kg [2]: 39%

COc1cc(-c2nnc3n2CCCC3(Oc2ccc(F)c(F)c2)C(C)(C)O)ccc1-c1cnc(C)o1 (stereo not drawn) [Example 92, 2-{8-(3,4-difluorophenoxy)-3-[3-methoxy-4-(2-methyl-1,3-oxazol-5-yl)phenyl]-5,6,7,8-tetrahydro[1,2,4]triazolo[4,3-a]pyridin-8-yl}propan-2-ol]
pIC50 ([1]; Rattus norvegicus, 72 h): 7.23
Aβ42 production inhibitory activity (% inhibition) [2]: 32%

COc1cc(-c2nnc3n2CCCC3(Oc2cc(F)c(F)c(F)c2)C(C)(C)O)ccc1-c1cnc(C)o1 (stereo not drawn) [Example 99, 2-{3-[3-methoxy-4-(2-methyl-1,3-oxazol-5-yl)phenyl]-8-(3,4,5-trifluorophenoxy)-5,6,7,8-tetrahydro[1,2,4]triazolo[4,3-a]pyridin-8-yl}propan-2-ol]
pIC50 ([1]; Rattus norvegicus, 72 h): 7.70
inhibition at 10 mg/kg [2]: 34%

COc1cc(-c2nnc3n2CCCC3(Oc2cccc(C(F)(F)F)c2)C(C)(C)O)ccc1-c1cnc(C)o1 (stereo not drawn) [Example 103, 2-{3-[3-methoxy-4-(2-methyl-1,3-oxazol-5-yl)phenyl]-8-[3-(trifluoromethyl)phenoxy]-5,6,7,8-tetrahydro[1,2,4]triazolo[4,3-a]pyridin-8-yl}propan-2-ol]
pIC50 ([1]; Rattus norvegicus, 72 h): 7.39
inhibition at 10 mg/kg [2]: 42%

COc1cc(-c2nnc3n2CCCC3(Oc2ccc(C(F)(F)F)cc2)C(C)(C)O)ccc1-c1cnc(C)o1 (stereo not drawn) [Example 104, 2-{3-[3-methoxy-4-(2-methyl-1,3-oxazol-5-yl)phenyl]-8-[4-(trifluoromethyl)phenoxy]-5,6,7,8-tetrahydro[1,2,4]triazolo[4,3-a]pyridin-8-yl}propan-2-ol]
pIC50 [1]: 7.39
Aβ42 production inhibitory activity (% inhibition) [2]: 36%

COc1cc(-c2nnc3n2CCCC3(Oc2ccc(Cl)c(F)c2)C(C)(C)O)ccc1-c1cnc(C)o1 (stereo not drawn) [Example 111, 2-{8-(4-chloro-3-fluorophenoxy)-3-[3-methoxy-4-(2-methyl-1,3-oxazol-5-yl)phenyl]-5,6,7,8-tetrahydro[1,2,4]triazolo[4,3-a]pyridin-8-yl}propan-2-ol]
pIC50 [1]: 8.00
inhibition at 10 mg/kg [2]: 46%

CCC(O)(CC)C1(Oc2ccc(Cl)c(F)c2)CCCn2c(-c3ccc(-c4cnc(C)o4)c(OC)c3)nnc21 (stereo not drawn) [Example 120, 3-{8-(4-chloro-3-fluorophenoxy)-3-[3-methoxy-4-(2-methyl-1,3-oxazol-5-yl)phenyl]-5,6,7,8-tetrahydro[1,2,4]triazolo-[4,3-a]pyridin-8-yl}pentan-3-ol]
pIC50 ([1]; Rattus norvegicus, 72 h): 8.40
inhibition at 10 mg/kg [2]: 21%

COc1cc(-c2nnc3n2CCC[C@]3(Oc2cc(F)c(F)c(F)c2)C(C)(C)O)ccc1-c1cnc(C)o1 [Example 122, 2-{(8R)-3-[3-methoxy-4-(2-methyl-1,3-oxazol-5-yl)phenyl]-8-(3,4,5-trifluorophenoxy)-5,6,7,8-tetrahydro[1,2,4]triazolo[4,3-a]pyridin-8-yl}propan-2-ol]
pIC50 ([1]; Rattus norvegicus, 72 h): 7.72
inhibition at 10 mg/kg [2]: 54%

COc1cc(-c2nnc3n2CCCC3(Oc2ccc(F)c(F)c2)C(C)(C)O)ccc1-c1cnc(C)o1 (stereo not drawn) [Example 124, 2-{8-(3,4-difluorophenoxy)-3-[3-methoxy-4-(2-methyl-1,3-oxazol-5-yl)phenyl]-5,6,7,8-tetrahydro[1,2,4]triazolo[4,3-a]pyridin-8-yl}propan-2-ol]
pIC50 [1]: 7.17
inhibition at 10 mg/kg [2]: 41%

COc1cc(-c2nnc3n2CCCC3(COc2ccc(Cl)cc2)C(C)(C)O)ccc1-c1cnc(C)o1 (stereo not drawn) [Example 127, 2-{8-[(4-chlorophenoxy)methyl]-3-[3-methoxy-4-(2-methyl-1,3-oxazol-5-yl)phenyl]-5,6,7,8-tetrahydro[1,2,4]triazolo[4,3-a]pyridin-8-yl}propan-2-ol]
pIC50 ([1]; Rattus norvegicus, 72 h): 7.36
inhibition at 10 mg/kg [2]: 21%

COc1cc(-c2nnc3n2CCCC3(Oc2cccc(C(F)(F)F)c2)C(C)(C)O)ccc1-c1cnc(C)o1 (stereo not drawn) [Example 130, 2-{3-[3-methoxy-4-(2-methyl-1,3-oxazol-5-yl)phenyl]-8-[3-(trifluoromethyl)phenoxy]-5,6,7,8-tetrahydro[1,2,4]triazolo[4,3-a]pyridin-8-yl}propan-2-ol]
pIC50 [1]: 7.62
Aβ42 production inhibitory activity (% inhibition) [2]: 59%

COc1cc(-c2nnc3n2CCCC3(Oc2ccc(C(F)(F)F)cc2)C(C)(C)O)ccc1-c1cnc(C)o1 (stereo not drawn) [Example 132, 2-{3-[3-methoxy-4-(2-methyl-1,3-oxazol-5-yl)phenyl]-8-[4-(trifluoromethyl)phenoxy]-5,6,7,8-tetrahydro[1,2,4]triazolo[4,3-a]pyridin-8-yl}propan-2-ol]
pIC50 [1]: 7.72
Aβ42 production inhibitory activity (% inhibition) [2]: 58%

COc1cc(-c2nnc3n2CCCC3(Nc2cc(F)c(F)c(F)c2)C(C)(C)O)ccc1-c1cnc(C)o1 (stereo not drawn) [Example 181, 2-{3-[3-methoxy-4-(2-methyl-1,3-oxazol-5-yl)phenyl]-8-[(3,4,5-trifluorophenyl)amino]-5,6,7,8-tetrahydro[1,2,4]triazolo[4,3-a]pyridin-8-yl}propan-2-ol]
pIC50 ([1]; Rattus norvegicus, 72 h): 7.24

COc1nc(-c2nnc3n2CCC[C@]3(Oc2cc(F)c(F)c(F)c2)C(C)(C)O)ccc1-n1cnc(C)c1 [Example 187, 2-{(8R)-3-[6-methoxy-5-(4-methyl-1H-imidazol-1-yl)pyridin-2-yl]-8-(3,4,5-trifluorophenoxy)-5,6,7,8-tetrahydro[1,2,4]triazolo[4,3-a]pyridin-8-yl}propan-2-ol 1(+)-mandelate]
pIC50 [1]: 7.54

COc1cc(-c2nnn3c2CCCC3(Oc2cc(F)c(F)c(F)c2)C(C)(C)O)ccc1-c1cnc(C)o1 (stereo not drawn) [Example 191, optically active 2-{3-[3-methoxy-4-(2-methyl-1,3-oxazol-5-yl)phenyl]-7-(3,4,5-trifluorophenoxy)-4,5,6,7-tetrahydro[1,2,3]triazolo[1,5-a]pyridin-7-yl}propan-2-ol]
pIC50 [1]: 8.10

COc1nc(-c2nnc3n2CCC[C@]3(Oc2cc(F)c(F)c(F)c2)C(C)(C)O)ccc1-n1cnc(C)c1 [Example 194, 2-{(8R)-3-[6-methoxy-5-(4-methyl-1H-imidazol-1-yl)pyridin-2-yl]-8-(3,4,5-trifluorophenoxy)-5,6,7,8-tetrahydro[1,2,4]triazolo[4,3-a]pyridin-8-yl}propan-2-ol 0.67 phosphate]
pIC50 [1]: 7.48

COc1nc(-c2nnc3n2CCC[C@]3(Oc2cc(F)c(F)c(F)c2)C(C)(C)O)ccc1-n1cnc(C)c1 [Example 197, 2-{(8R)-3-[6-methoxy-5-(4-methyl-1H-imidazol-1-yl)pyridin-2-yl]-8-(3,4,5-trifluorophenoxy)-5,6,7,8-tetrahydro[1,2,4]triazolo[4,3-a]pyridin-8-yl}propan-2-ol monogentisate]
pIC50 [1]: 7.52
